For data set [1], the system named is IP3K. The settings on record: [ATP] = 10 μM; cited from earlier work.
In data set [2] the target is T1, CYP2E1 (Homo sapiens, UniProt P05181).
T1 construct: from tissue; host or cells: pooled human liver microsomes
Put plainly: Direct CYP inhibition assay, pooled human liver microsomes, LC-MS/MS. It is filed as in vitro ADME. The settings on record: pooled HLMs, up to 50 μM, chlorzoxazone substrate. On the procedure: (§1) Reactions were incubated in eight-well strips placed in an 8 × 12 racks (1.2 ml; VWR, Emeryville, CA). The incubation mixtures (final volume, 200 μL) contained 0.2 mg/mL HLMs, 0.1 M phosphate buffer (pH 7.4), 1 mM NADPH, and various CYP isoform-specific substrate cocktail sets (A set: phenacetin, coumarin, amodiaquine, S-mephenytoin, dextromethorphan, and midazolam; B set: bupropion, tolbutamide, chlorzoxazone, and testosterone). […] Substrates were dissolved and serially diluted with acetonitrile to the required concentration in all experiments. […] The reactions were incubated at 37 °C in a shaking water bath. The reactions were terminated by placing the incubation tubes on ice, adding 200 μL of cold acetonitrile containing carbamazepine (100 nM) and 4-methylumbelliferone (500 nM) as an internal standard after 10 min, and agitating with a vortex mixer before centrifugation. The samples for each enzyme assay were centrifuged at 3,000 × g for 20 min at 4 °C, and supernatants of the individual reaction samples and pooled cocktail incubation samples (A set: B set, 1:1) were analysed using LC-MS/MS.
(§2) Sample injection volume was 10 μL, and separation was performed on an Atlantis™ dC18 column (2.1 × 50 mm i.d., 3 μm; Waters, Milford, MA, USA) and Luna™5u C18 column (2.0 × 30 mm i.d.; Phenomenex, Torrance, CA, USA) with a SecurityGuard™ C18 guard column (2.0 × 4.0 mm i.d.; Phenomenex, Torrance, CA, USA) maintained at 30 °C. The column was pre-equilibrated in 100% v/v solvent A (deionized water containing 0.1% v/v formic acid)/0% v/v solvent B (acetonitrile containing 0.1% v/v formic acid) at a flow rate of 0.4 ml/min. […] Quadrupoles Q1 and Q3 were set on unit resolution. The samples were analysed via multiple reaction monitoring (MRM) and enhanced product ion (EPI) scan mode. The turbo ion spray interface was operated in the positive ion mode at 5,500 V. The operating conditions were determined as follows: ion source temperature, 600 °C; nebulising gas flow, 50 L/min; auxiliary gas flow, 4.0 L/min; curtain gas flow, 20 L/min; collision gas (nitrogen) pressure 3.6 × 10^−5 Torr. Nitrogen gas was used for CUR, CAD, and NEB. The MRM transitions, collision energies and retention time were determined for each metabolite. The samples were analysed via MRM as described in our previous study. The scan dwell time was set at 0.08 s for every channel. Data acquisition and analysis was performed using the Analyst™ software (version 1.5.2; Applied Biosystems, Foster City, CA, USA).
(In general: Microsomes from liver hold many membrane-bound enzymes, among them those of drug oxidation.)

The target in data set [3] is T2, CYP2B6 (Homo sapiens, UniProt P20813).
T2 construct: from tissue; host or cells: pooled human liver microsomes
T2 sequence (P20813 1-491): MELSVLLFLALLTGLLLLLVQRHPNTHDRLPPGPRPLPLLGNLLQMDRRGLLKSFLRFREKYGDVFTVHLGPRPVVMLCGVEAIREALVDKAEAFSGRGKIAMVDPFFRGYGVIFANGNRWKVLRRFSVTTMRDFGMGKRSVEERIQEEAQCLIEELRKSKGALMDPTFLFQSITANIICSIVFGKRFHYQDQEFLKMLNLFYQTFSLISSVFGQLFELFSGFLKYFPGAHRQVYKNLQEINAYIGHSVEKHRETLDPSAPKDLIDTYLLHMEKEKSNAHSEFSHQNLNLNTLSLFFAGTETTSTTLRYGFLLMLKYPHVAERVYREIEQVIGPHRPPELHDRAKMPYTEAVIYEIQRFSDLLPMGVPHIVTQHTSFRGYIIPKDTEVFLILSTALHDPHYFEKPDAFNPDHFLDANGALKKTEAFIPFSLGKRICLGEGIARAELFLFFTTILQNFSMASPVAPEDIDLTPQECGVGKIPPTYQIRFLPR
The data set is described as above. The settings on record: pooled HLMs, up to 50 μM, bupropion substrate. Format: in vitro ADME. On the procedure:
as §1, §2

Results on one compound are retold here after PMC8667942 (Journal of Enzyme Inhibition and Medicinal Chemistry, 2021).

As usually defined, the IC50 is the concentration that gives 50% inhibition.

T1 sequence (P05181 whole entry): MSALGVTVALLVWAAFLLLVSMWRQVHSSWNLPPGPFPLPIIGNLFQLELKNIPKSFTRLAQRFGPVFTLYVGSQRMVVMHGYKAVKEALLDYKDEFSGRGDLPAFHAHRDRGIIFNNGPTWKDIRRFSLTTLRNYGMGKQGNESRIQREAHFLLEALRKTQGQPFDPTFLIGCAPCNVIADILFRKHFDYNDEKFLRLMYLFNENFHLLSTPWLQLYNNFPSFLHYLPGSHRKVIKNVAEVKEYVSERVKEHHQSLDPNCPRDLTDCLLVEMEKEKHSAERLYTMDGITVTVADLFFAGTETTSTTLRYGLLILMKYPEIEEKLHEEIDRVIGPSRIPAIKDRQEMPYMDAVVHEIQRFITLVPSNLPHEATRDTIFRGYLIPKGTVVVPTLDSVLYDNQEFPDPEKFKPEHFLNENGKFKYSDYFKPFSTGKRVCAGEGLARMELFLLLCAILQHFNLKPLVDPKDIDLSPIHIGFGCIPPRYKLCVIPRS

Regarding `O=[N+]([O-])c1ccc(CNc2nc(NCc3cccc(C(F)(F)F)c3)nc3[nH]cnc23)cc1` [TNP, N^6-[(4-nitrophenyl)methyl]-N^2-[[3-(trifluoromethyl)phenyl]methyl]-9H-purine-2,6-diamine], the IC50 in data set [1] was 18 µM. The “inhibitory effect on CYP2E1” value in data set [2] is recorded as “no inhibitory effect”. Further, in data set [3], the “inhibitory effect on CYP2B6” value was “no inhibitory effect”.
